Earlier results on one compound are cited in patent publication US20040260072A1, “Hydrophilic, thiol-reactive cyanine dyes and conjugates thereof with biomolecules for fluorescence diagnosis” (priority 2003, published 2004).

The conditions of the data set: in DMSO; J Chem Eng Data 1977, 22, 379.

For the compound `CC1(C)C(/C=C/C=C/C=C/C=C2\N(CCCCS(=O)(=O)O)c3ccc4ccccc4c3C2(C)C)=[N+](CCCCS(=O)(=O)[O-])c2ccc3ccccc3c21` [Indocyanine Green], the “Fluorescence quantum yield Q” value was 0.13.
